Measured values taken from patent US20230189807A1, “COMPOSITIONS HAVING PESTICIDAL UTILITY AND PROCESSES RELATED THERETO” (priority 2020, published 2023).
Where two headings read alike, the source gives them in different places.

What was measured:
Format in all cases: in vivo
[1] = system: Neotropical Brown Stink Bug (Euschistus heros, EUSCHE); test: Bioassay 5: Neotropical Brown Stink Bug, soaked green bean segments; conditions: 72 h; for pest or weed control at 0.0025 % / pest or weed control at 0.000156 %: read-out: Average % Control AI; for pest or weed control at 0.000625 %: AI alone 0.000625 % (w/v)
Procedure: Stock solutions were prepared with Formula One as well as for each of the active ingredients individually. Test solutions were prepared from the stock solutions. Test solutions were prepared containing Formula One, the individual active ingredients, and mixtures of Formula One with each of the active ingredients. The test solution for Formula One was prepared by adding 500 μL of the stock solution to a 25 mL glass vial, then adding 500 μL of acetone, followed by the addition of 9 mL water with 0.025% Tween® 20 to create a 0.04% (w/v) solution. The individual active ingredients were prepared by adding 500 μL of stock solution to a 25 mL glass vial, then adding 500 μL of acetone, followed by the addition of 9 mL water with 0.025% Tween® 20 to create a 0.005% (w/v) solution. The test solutions containing mixtures of Formula One and the individual active ingredients were prepared by adding 500 μL of the active ingredient stock solution to a 25 mL glass vial, followed by 500 μL of the Formula One stock solution, then by the addition of 9 mL water with 0.025% Tween® 20 to create a test solution containing 0.04% (w/v) Formula One and 0.005% (w/v) of the active ingredient. Each test solution was serially diluted to create desired doses of test solutions (0.01% (w/v), 0.0025% (w/v), 0.000625% (w/v), 0.000156% (w/v), and 0.000039% (w/v)). In test solutions containing mixtures of Formula One and the active ingredients, the active ingredients were diluted as described above, but the Concentration of Formula One was held constant (0.04% (w/v)).
The test solutions that were tested against BSB were similar to those described above for WTPB. Fresh green beans were cut into segments approximately 1.5 inches long. Four bean segments were added to each test solution and soaked for approximately 15 minutes. After soaking, a single bean fragment was removed and placed into a single well of a 32-well rearing tray (Frontier Agricultural Sciences™), on top of a round filter paper disc. A reference treatment (solvent check) was treated with the diluent only. Each treatment was replicated four times and the test treatments were held at approximately 26° C. and ambient relative humidity (RH) prior to grading. Bean segments were allowed to air dry for ˜30 minutes. Three BSB nymphs were added to and contained in each well with a clear perforated adhesive lid. The total number of living BSB nymphs was recorded 3 days after application. Scoring was based off the total number of living nymphs out of all four replicates. Percent control was measured using Abbott's correction formula (W. S. Abbott, J. Econ. Entomol. 18 (1925), pp. 265-267) as follows:
(§1) Corrected % Control=(1−(Y/X))*100
where X=No. of live nymphs on solvent check and Y=No. of live nymphs on treated bean segments. In Table B5 the “Expected % Control” was calculated using the method described in Colby S. R., Weeds, 1967, 15, 20-22. Bioassay 6: Beet Armyworm (Spodoptera exigua, LAPHEG) (BAW), and Diamondback Moth (Plutella xylostella, PLUTMA) (DBM).

[2] = system: Green Peach Aphid (Myzus persicae, MYZUPE); test: Bioassay 1: Green Peach Aphid, cabbage seedling foliar spray; conditions: 3 days after treatment
Procedure: The stock solutions were prepared with Formula One as well as for each of the active ingredients individually. Test solutions were prepared from the stock solutions. Test solutions were prepared containing Formula One, the individual active ingredients, and mixtures of Formula One with each of the active ingredients. The test solutions for Formula One and the individual active ingredients were prepared by adding 750 microliters (μL) of stock solution to a 25 mL glass vial, then adding 750 μL of 1:1 acetone:methanol solvent, followed by the addition of 13.5 mL water with 0.025% Tween® 20 to create a 0.0005% (weight/volume (w/v)) solution. The test solutions containing mixtures of Formula One and the individual active ingredients were prepared by adding 750 μL of the active ingredient stock solution to a 25 mL glass vial, followed by 750 μL of the Formula One stock solution, then by the addition of 13.5 mL water with 0.025% Tween® 20 to create a test solution containing 0.0005% (w/v) Formula One and 0.0005% (w/v) of the active ingredient. Each test solution was serially diluted to create desired doses of test solutions (0.0005% (w/v), 0.000125% (w/v), 0.00003125% (w/v), 0.0000078% (w/v), 0.00000195% (w/v), and 0.0000005% (w/v)).
The test solutions were tested against GPA using the following procedure: Cabbage seedlings, grown in 3 inch pots with 2-3 small (3-5 centimeter (cm)) true leaves, were used as test substrate. The seedlings were infested with 20-50 GPA (wingless adult and nymph stages) one day prior to chemical application. Four pots with individual seedlings were used for each treatment. A hand-held aspirator-type sprayer was used for spraying a solution to both sides of […] leaves until runoff. Reference plants (solvent check) were sprayed with the diluent only (0.025% Tween® 20 and 10% acetone:methanol (1:1) in water). Treated plants were held in a holding room for three days at approximately 25° C. and ambient relative humidity (RH about 20% to about 45%) prior to grading. Evaluation was conducted by counting the number of live aphids per plant under a microscope three days after treatment. Percent control was measured using Abbott's correction formula (W. S. Abbott, J. Econ. Entomol. 18 (1925), pp. 265-267) as follows:
as §1
where X=No. of live aphids on solvent check plants and Y=No. of live aphids on treated plants. In Table B1 the “Expected % Control” was calculated using the method described in Colby S. R., Weeds, 1967, 15, 20-22. Bioassay 2: Sweet Potato Whitefly (Bemisia tabaci, BEMITA) (“SPW”).

[3] = system: Western Flower Thrips (Frankliniella occidentalis, FRANOC); test: Bioassay 3: Western Flower Thrips, cotton leaf disc dip; conditions: foliar, 72 h; for pest or weed control at 7.8e-05 %: read-out: Average % Control AI; for pest or weed control at 0.0003125 %: AI alone 0.0003125 % (w/v); for pest or weed control at 0.005 %: AI alone 0.005 % (w/v)
Procedure: Stock solutions of Formula One and various active ingredients were prepared initially at a concentration of 8 mg/mL for Formula One and 1 mg/mL for the active ingredients, respectively, using acetone as a diluent. Stock solutions were prepared with Formula One as well as for each of the active ingredients individually. Test solutions were prepared from the stock solutions. Test solutions were prepared containing Formula One, the individual active ingredients, and mixtures of Formula One with each of the active ingredients. The test solution for Formula One was prepared by adding 500 μL of the stock solution to a 25 mL glass vial, then adding 500 μL of acetone, followed by the addition of 9 mL water with 0.025% Tween® 20 to create a 0.04% (w/v) solution. The test solutions of the individual active ingredients were prepared by adding 500 μL of stock solution to a 25 mL glass vial, then adding 500 μL of acetone, followed by the addition of 9 mL water with 0.025% Tween® 20 to create a 0.005% (w/v) solution. The test solutions containing mixtures of Formula One and the individual active ingredients were prepared by adding 500 μL of the active ingredient stock solution to a 25 mL glass vial, followed by 500 μL of the Formula One stock solution, then by the addition of 9 mL water with 0.025% Tween® 20 to create a test solution containing 0.04% (w/v) Formula One and 0.005% (w/v) of the active ingredient. Each test solution was serially diluted to create desired doses of test solutions (0.005% (w/v), 0.00125% (w/v), 0.0003125% (w/v), 0.000078% (w/v), and 0.0000195% (w/v)). In test solutions containing mixtures of Formula One and the active ingredients, the active ingredients were diluted as described above, but the Concentration of Formula One was held constant (0.04% (w/v)).
The test solutions were tested against WFT using the following procedure: Leaf discs (2.7 cm in diameter) were cut from the true leaves of cotton plants. Leaf discs were dipped into the test solutions and shaken to ensure complete coverage of the leaf disc and then placed in Millipore® PetriSlides containing a filter paper disc. Treated leaf discs were air dried for approximately 1 hour. Each leaf disc was infested with 5 WFT (9-10 day old nymphs) by placement on each leaf disc, and the PetriSlides were capped to prevent escape. Each treatment was replicated three times and the test treatments were held at approximately 26° C. and ambient relative humidity (RH) prior to grading. Reference discs (solvent check) were treated with the diluent only. Evaluation was conducted by counting the number of live WFT under magnification 3 days after treatment. Percent control was measured using Abbott's correction formula (W. S. Abbott, J. Econ. Entomol. 18 (1925), pp. 265-267) as follows:
as §1
where X=No. of live nymphs on solvent check leaf discs and Y=No. of live nymphs on treated leaf discs. In Table B3 the “Expected % Control” was calculated using the method described in Colby S. R., Weeds, 1967, 15, 20-22. Bioassay 4: Western Tarnished Plant Bug (Lygus hesperus, LYGUHE) (“WTPB”).

[4] = AI alone 0.0025 % (w/v), soaked bean segments, 3 days after application
[5] = AI alone 0.000156 % (w/v), soaked bean segments, 3 days after application
[6] = AI alone 0.000078 % (w/v), cotton leaf disc dip, 3 days after treatment
[7] = soaked bean segments, 3 days after application
[8] = cotton leaf disc dip, 3 days after treatment

`CC(c1ccc(C(F)(F)F)nc1)S(C)(=O)=NC#N` (stereo not shown) [Sulfoxaflor] showed a pest or weed control at 0.0025 % [1, 4] of 58%.
`Cc1c(COC(=O)[C@@H]2[C@H](/C=C(\Cl)C(F)(F)F)C2(C)C)cccc1-c1ccccc1` (racemic) [Bifenthrin] was tested, and the pest or weed control at 0.000156 % [1, 5] was 30% and the “Average % Control A1” value ([2]; AI alone 0.78x10^-5 % (w/v)) was 52%.
`CN1COCN(Cc2cnc(Cl)s2)/C1=N\[N+](=O)[O-]` [Thiamethoxam] showed a pest or weed control at 0.000156 % [1, 5] of 17% and a pest or weed control at 7.8e-05 % [3, 6] of 7%.
With `COP(=O)(NC(C)=O)SC` (stereo not shown) [Acephate] the pest or weed control at 0.0025 % [1] was 0% and the pest or weed control at 7.8e-05 % [3] was 5%.
For `CC1(C)[C@H](C(=O)O[C@H](C#N)c2cccc(Oc3ccccc3)c2)[C@@H]1/C=C(\Cl)C(F)(F)F` (racemic) [Lambda Cyhalothrin], the pest or weed control at 0.000625 % [1, 7] was 8%, the “Average % Control A1” value ([2]; AI alone 0.78x10^-5 % (w/v)) was 40% and the pest or weed control at 0.0003125 % [3, 8] was 7%.
In the case of `CCOC(=O)OC1=C(c2cc(C)ccc2C)C(=O)N[C@]12CC[C@@H](OC)CC2` [Spirotetramat], the “Average % Control A1” value ([2]; AI alone 0.05x10^-5 % (w/v)) is reported as 15% and the pest or weed control at 7.8e-05 % [3, 6] is reported as 7%.
For `CCOCn1c(-c2ccc(Cl)cc2)c(C#N)c(Br)c1C(F)(F)F` [Chlorfenapyr], the pest or weed control at 0.0025 % [1, 4] was 8% and the pest or weed control at 0.005 % [3, 8] was 57%.
`COc1cccc(C(=O)NN(C(=O)c2cc(C)cc(C)c2)C(C)(C)C)c1C` [Methoxyfenozide] was tested, and the “Average % Control A1” value ([2]; AI alone 0.195x10^-5 % (w/v)) was 5%.
For `CC[S+]([O-])c1c(C#N)nn(-c2c(Cl)cc(C(F)(F)F)cc2Cl)c1N` (stereo not shown) [Ethiprole], the pest or weed control at 3.91e-05 % ([1]; AI alone 0.0000391 % (w/v), soaked bean segments, 3 days after application) was 0%, the “Average % Control A1” value ([2]; AI alone 3.125x10^-5 % (w/v)) was 0% and the pest or weed control at 0.005 % [3, 8] was 0%.
`CON=CNC(=O)c1ccc(C2=NOC(c3cc(Cl)cc(Cl)c3)(C(F)(F)F)C2)cc1C` (stereo not shown) [Fluxametamide] was tested, and the “Average % Control A1” value ([2]; AI alone 12.5x10^-5 % (w/v)) was 0%.
`CC(COc1ccc(Oc2ccccc2)cc1)Oc1ccccn1` (stereo not shown) [Pyriproxyfen] gave a pest or weed control at 0.00125 % ([3]; AI alone 0.00125 % (w/v), cotton leaf disc dip, 3 days after treatment) of 17%.
With `C/C(=N\C#N)N(C)Cc1ccc(Cl)nc1` [Acetamiprid] the “Average % Control A1” value ([2]; AI alone 0.78x10^-5 % (w/v)) was 24% and the pest or weed control at 0.0003125 % [3, 8] was 13%.
Molecule `CNC(=O)O/N=C(\SC)C(=O)N(C)C` [Oxamyl] has a pest or weed control at 0.0003125 % [3, 8] of 0%.
Emamectin Benzoate was tested, and the “Average % Control A1” value ([2]; AI alone 3.125x10^-5 % (w/v)) was 21%.
`CN/C(=N/CC1CCOC1)N[N+](=O)[O-]` (stereo not shown) [Dinotefuran] was tested, and the pest or weed control at 0.000156 % [1] was 17%.
`O=[N+]([O-])NC1=NCCN1Cc1ccc(Cl)nc1` [Imidacloprid] showed a pest or weed control at 0.000625 % [1, 7] of 17% and a pest or weed control at 0.0003125 % [3, 8] of 0%.
For `CNC(=O)c1cc(Cl)cc(C)c1NC(=O)c1cc(Br)nn1-c1ncccc1Cl` [Chlorantraniliprole], the pest or weed control at 0.005 % [3, 8] was 7%.
